Test results from patent publication US10857113B2, “Bezafibrate for the treatment of cancer” (Cipla Limited, priority 2016, dated 2020).
Where two headings read alike, the source gives them in different places.

How the values were obtained:
Assay type in all cases: cell-based
786-O [1] = experiment: In vitro 2D assay (CellTiter-Blue); conditions: Homo sapiens, 786-0, 2D model, 96 hour treatment
Source text: (§1) Cell lines RXF 1183L, RXF 1220L, RXF 1781L, RXF 393L and RXF 486L were established at Oncotest from the corresponding human patient-derived xenograft. The cell lines 786-O, A-498, Caki-1 and SN12C were purchased from NCI (National Cancer Institute, Bethesda, Md., USA). ACHN was purchased from ECACC (European Collection of Cell Cultures, Salisbury, UK). Authenticity of cell lines was confirmed at the DSMZ by STR (short tandem repeat) analysis, a PCR based DNA-fingerprinting methodology.
(§2) Cell lines were routinely passaged once or twice weekly and maintained in culture for up to 20 passages. All cells were grown at 37° C. in a humidified atmosphere with 5% CO2 in RPMI 1640 medium (25 mM HEPES, with L-glutamine, # FG1385, Biochrom, Berlin, Germany) supplemented with 10% (v/v) fetal calf serum (Sigma, Taufkirchen, Germany) and 0.1 mg/mL gentamicin (Life Technologies, Karlsruhe, Germany).
(§3) Bezafibrate was dissolved at a concentration of 100 mM in 100% Methanol and next 1:5 diluted with cell culture media (20 mM, 20% Methanol). Starting with this solution, serial dilutions (1:1.6) were prepared with cell culture medium. Next, 150 μL of the serial dilutions were transferred to the assay plates upon removing the cell culture media of each well (complete change of medium on assay plates). Thus the final test concentrations were 10,240, 6,400, 4,000, 2,500, 1,563, 977, 610, and 381 μM. The maximum methanol concentrations were 6% and 10%. No precipitation was observed.
(§4) Cells were harvested from exponential phase cultures, counted and plated in 96-well flat-bottom microtiter plates at a cell density of 4,000-12,000 cells/well depending on the cell line's growth rate. After a 24 hour recovery period to allow the cells to resume exponential growth, test compounds were added. Compounds were applied at 8 to 10 concentrations in duplicate and treatment continued for 96 hour. After 96 hour treatment of cells, 20 μL/well CellTiter-Blue® reagent was added. Following an incubation period of up to four hours, fluorescence (FU) was measured by using the Enspire Multimode Plate Reader (excitation λ=531 nm, emission λ=615 nm).
(§5) For calculations, the mean values of duplicate/quadruplicate (untreated control) data were used. Sigmoidal concentration-response curves were fitted to the data points (T/C values) obtained for each cell line using 4 parameter non-linear curve fit.

A-498 [2] = experiment: In vitro 2D assay (CellTiter-Blue); conditions: Homo sapiens, A498, 2D model, 96 hour treatment
Source text: as §1, §2, §3, §4, §5

ACHN [3] = experiment: In vitro 2D assay (CellTiter-Blue); conditions: Homo sapiens, 2D model
Source text: as §1, §2, §3, §4, §5

Caki-1 = experiment: In vitro 2D assay (CellTiter-Blue); conditions: Homo sapiens, 2D model, 96 hour treatment
Source text: as §1, §2, §3, §4, §5

RXF 1183L = experiment: In vitro 2D assay (CellTiter-Blue); conditions: Homo sapiens, 2D model, 96 hour treatment
Source text: as §1, §2, §3, §4, §5

RXF 1220L = experiment: In vitro 2D assay (CellTiter-Blue); conditions: Homo sapiens, 2D model
Source text: as §1, §2, §3, §4, §5

RXF 1781L = experiment: In vitro 2D assay (CellTiter-Blue); conditions: Homo sapiens, 2D model, 96 hour treatment
Source text: as §1, §2, §3, §4, §5

RXF 393L = experiment: In vitro 2D assay (CellTiter-Blue); conditions: Homo sapiens, 2D model, 96 hour treatment
Source text: as §1, §2, §3, §4, §5

RXF 486L = experiment: In vitro 2D assay (CellTiter-Blue); conditions: Homo sapiens, 2D model, 96 hour treatment
Source text: as §1, §2, §3, §4, §5

SN12C = experiment: In vitro 2D assay (CellTiter-Blue); conditions: Homo sapiens, 2D model, 96 hour treatment
Source text: as §1, §2, §3, §4, §5

[4] = tested on: human tumor cell models for RCC; experiment: In vitro 2D assay, all cell lines tested; conditions: 2D model; for IC50: Homo sapiens
Source text: as §1, §2
as §3, with “Thus the final test concentrations were 10,240, 6,400, 4,000, 2,500, 1,563, 977, 610, and 381 μM.” left out
as §4, §5

786-O [5] = experiment: In vitro 3D clonogenic assay; conditions: Homo sapiens, 786-0, 3D model, colony formation, 8 to 13 days continuous exposure
Method: (§6) Cell lines were routinely passaged one or twice weekly. All cells were grown at 37° C. in a humidified atmosphere with 5% CO2 in RPMI 1640 medium (Biochrom) supplemented with 10% (v/v) fetal calf serum and 0.1 mg/mL gentamicin. The percentage of viable cells was determined in a Neubauer-hemocytometer using trypan blue exclusion.
(§7) Tumor xenografts (patient-derived, as well as cell line-derived xenografts) were passaged as subcutaneous xenografts in NMRI nu/nu mice. At a tumor volume of 400-1,000 mm^3 tumor-bearing mice were sacrificed and tumors were collected under sterile conditions without delay according to the relevant Oncotest SOPs and the relevant animal welfare guidelines published by the FELASA and the GV-SOLAS. Tumors were mechanically disaggregated and subsequently incubated with an enzyme cocktail consisting of collagenase type IV (41 U/mL), DNase I (125 U/mL), hyaluronidase type III (100 U/mL), and dispase II (1.0 U/mL) in RPMI 1640 medium (Life Technologies) at 37° C. for 60-120 minutes. Cells were passed through sieves of 100 μm and 40 μm mesh size (Cell Strainer, BD Falcon™), and washed with RPMI 1640 medium. The percentage of viable cells was determined in a Neubauer-hemocytometer using trypan blue exclusion. Aliquots of the cells were frozen down, and stored in liquid nitrogen. On each day of an experiment, a frozen aliquot of tumor cells was thawed and used for preparation of assay plates.
(§8) The clonogenic assay was carried out in a 96 well plate format using ultra low attachment plates. For each test, cells were prepared as described above and assay plates were prepared as follows: each test well contained a layer of semi-solid medium with tumor cells (50 and a second layer of medium supernatant with or without test compound (100 The cell layer consisted of 2.5·10^3 to 1·10^4 tumor cells per well, which were seeded in 50 μL/well cell culture medium (IMDM, supplemented with 20% (v/v) fetal calf serum, 0.01% (w/v) gentamicin, and 0.4% (w/v) agar). After 24 hours the test compounds were added after serial dilution in cell culture medium, and left on the cells for the duration of the experiment (continuous exposure, 100 μl drug overlay). Every plate included six untreated control wells and drug-treated groups in duplicate at 9 concentrations. Cultures were incubated at 37° C. and 7.5% CO2 in a humidified atmosphere for 8 to 13 days and monitored closely for colony growth using an inverted microscope. Within this period, ex vivo tumor growth led to the formation of colonies with a diameter of >50 μm. At the time of maximum colony formation, counts were performed with an automatic image analysis system (CellInsight NXT, Thermo Scientific). 48 hours prior to evaluation, vital colonies were stained with a sterile aqueous solution of 2-(4-iodophenyl)-3-(4-nitrophenyl)-5-phenyltetrazolium chloride (1 mg/ml, 100 μl/well).

A-498 [6] = experiment: In vitro 3D clonogenic assay; conditions: Homo sapiens, A498, 3D model, colony formation, 8 to 13 days continuous exposure
Method: as §6, §7, §8

ACHN [7] = experiment: In vitro 3D clonogenic assay; conditions: Homo sapiens, 3D model, colony formation, 8 to 13 days continuous exposure, read-out: Absolute IC50
Method: as §6, §7, §8

[8] = second run 381 to 10,240 μM, read-out: Absolute IC50
[9] = 96 hour treatment, read-out: Relative IC50
[10] = 96 hour treatment, second run 381 to 10,240 μM, read-out: Absolute IC50
[11] = first run 93 to 4,000 μM, read-out: IC50

IC50 (786-O [1]; [8]): 795 µM
IC50 (786-O [1]; read-out: Relative IC50): 1070 µM
IC50 (ACHN [3]; [9]): 1130 µM
IC50 (ACHN [3]; [10]): 1050 µM
IC50 (ACHN [3]; [11]): 1070 µM
IC50 values, overall anti-cancer activity ([4]; overall statement): low mM range
IC50 ([4]; geometric mean over 10 cell lines, second run 381 to 10,240 μM, read-out: Geometric mean absolute IC50): 1220 µM
IC50 ([4]; geometric mean over 10 cell lines, read-out: Geometric mean relative IC50): 1560 µM
IC50 ([4]; first run 93 to 4,000 μM, read-out: Geometric mean absolute IC50): 1780 µM
IC50 (786-O [5]; read-out: Absolute IC50): 1340 µM
IC50 (786-O [5]; read-out: Relative IC50): 1470 µM
IC50 (A-498 [6]; read-out: Absolute IC50): 764 µM
IC50 (A-498 [6]; read-out: Relative IC50): 773 µM
IC50 (ACHN [7]): 1010 µM
SMILES: CC(C)(Oc1ccc(CCNC(=O)c2ccc(Cl)cc2)cc1)C(=O)O [Bezafibrate]
IC50 (A-498 [2]; [8]): 2120 µM
IC50 (A-498 [2]; read-out: Relative IC50): 2280 µM
IC50 (Caki-1; read-out: Relative IC50): 1400 µM
IC50 (Caki-1; [8]): 1230 µM
IC50 (RXF 1183L; [8]): 960 µM
IC50 (RXF 1183L; read-out: Relative IC50): 1060 µM
IC50 (RXF 1220L; [10]): 1930 µM
IC50 (RXF 1220L; [9]): 2110 µM
IC50 (RXF 1220L; [11]): 3410 µM
IC50 (RXF 1781L; read-out: Relative IC50): 1950 µM
IC50 (RXF 1781L; [8]): 1860 µM
IC50 (RXF 393L; [8]): 1040 µM
IC50 (RXF 393L; read-out: Relative IC50): 1640 µM
IC50 (RXF 486L; read-out: Relative IC50): 1330 µM
IC50 (RXF 486L; [8]): 987 µM
IC50 (SN12C; read-out: Relative IC50): 1210 µM
IC50 (SN12C; [8]): 966 µM
